Tests used:
93T449 liposarcoma = assay: Western blot analysis; format: cell-based; details: IC50, 48 hours
Procedure: (§1) Western blot analysis. Cells were plated in a 6-well plate and incubated overnight before the spent media was replaced with drugged media. Drug treatment lasted for indicated durations. Protein was extracted using radioimmunoprecipitation (RIPA) assay buffer (Cat #R0278, Sigma-Aldrich, St. Louis, MO, USA) containing cOmplete™, Mini, EDTA-free Protease Inhibitor Cocktail (Cat #4693159001, Roche, Basel, Switzerland) from sub-confluent cells. Denaturing sample buffer was added, samples were boiled at 95° C. for ten minutes, and an equal amount of protein lysate was electrophoresed through NuPAGE™ 4 to 12%, bis-Tris, 1.5 mm, Mini Protein Gels (Invitrogen, Waltham, MA, USA) then transferred to PVDF membranes. The PVDF membrane was blocked with 5% non-fat milk (Sigma-Aldrich, St. Louis, MO, USA) in 1× TTBS. Primary antibodies were incubated with the transferred PVDF membrane in blocking buffer at 4° C. overnight. Secondary antibodies included Goat anti-Rabbit IgG (H+L) Secondary Antibody, HRP (Cat #31460, Invitrogen, Waltham, MA, USA), and Goat anti-Mouse IgG (H+L) Secondary Antibody, HRP (Cat #31430, Invitrogen, Waltham, MA, USA). The signal was detected using Pierce™ ECL Western Blotting Substrate (Cat #32106, Thermo Scientific, Waltham, MA, USA) and a Syngene Imaging System (RRID: SCR_015770).
(§2) Saos-2 osteosarcoma and 93T449 liposarcoma cell lines were pretreated at IC50 with elraglusib. The cells were harvested for Western blot analysis after 48 hours of treatment. Both cancer cell lines as well as TALL-104 T-cells and NK-92 NK cells were treated with 0.5 μM elraglusib for twenty-four hours and harvested for Luminex cytokine profiling.

Saos-2 osteosarcoma = assay: Western blot analysis; format: cell-based; details: IC50, 48 hours
Procedure: as §1, §2

[1] = test system: GFP+ SW480 colorectal cancer cells; assay: immune cell-killing co-culture assay (Example 1); format: cell-based, human
Procedure: A panel of human colorectal cell lines was chosen to provide a varied mutational background (TP53, KRAS, BRAF, TRK, APC, PIK3CA). Cells were treated with elraglusib at doses up to 50 μM for seventy-two hours to determine IC10, IC30, IC50, and IC70. Cytokine, chemokine, and growth factor levels were analyzed in the tumor cell culture supernatants after treatment at IC10, IC30, IC50, and IC70 for forty-eight hours using a Luminex 200 multiplexing instrument. Co-culture experiments were conducted with GFP+ SW480 colorectal cancer cells and either NK-92 natural killer cells or TALL-104 T cells at various effector/target ratios in a 48-well plate, in the presence or absence of elraglusib.

TALL-104 = assay: Western blot analysis; format: cell-based, human; details: as treatment duration increased (0-72 hours)
Procedure: as §1, with “Secondary antibodies included Goat anti-Rabbit IgG (H+L) Secondary Antibody, HRP (Cat #31460, Invitrogen, Waltham, MA, USA), and Goat anti-Mouse IgG (H+L) Secondary Antibody, HRP (Cat #31430, Invitrogen, Waltham, MA, USA).” left out
Elraglusib enhances immune cell effector function. the inventors next analyzed immune cell lines (TALL-104, NK-92) using western blot analysis.

MSS cell line CT-26 = assay: syngeneic murine colon carcinoma BALB/c model, survival and tumor response; format: in vivo, mouse
Procedure: In vivo studies. […] Once tumor volume reached at least 100 mm^3, mice were randomly assigned to one of seven groups (12 mice/group): Control (isotype), elraglusib, elraglusib+Isotype, anti-PD-1, anti-PD-L1, elraglusib+anti-PD-1, and elraglusib+anti-PD-L1. All treatments were delivered by IP injection using the following dosing schedule: Isotype (70 mg/kg, twice a week), elraglusib (70 mg/kg, twice a week), anti-PD-1 (10 mg/kg, twice a week), anti-PD-L1 (10 mg/kg, twice a week). Treatment dosing was determined based on previous studies of elraglusib and anti-PD-1/anti-PD-L1. […] The treatment continued until mice developed signs of discomfort from excessive tumor growth. Mice were weighed once a week to monitor signs of drug toxicity. The length (L) and width (W) of the masses were measured three times per week with a digital caliper, and the tumor volume was calculated by applying the formula: 0.5LW2 Collection of whole blood and serum was performed by cardiac puncture and sent to Antech Diagnostics GLP (Morrisville, NC, USA) for blood cell count and chemistry tests, or in-house cytokine profiling. Tumors and organs were dissected and harvested for analysis by immunohistochemistry and flow cytometry.
In a syngeneic murine colon carcinoma BALB/c model using microsatellite stable cell line CT-26, the inventors compared isotype, elraglusib (70 mg/kg 2×/week), αPD-1 (10 mg/kg 2×/week), αPD-L1 (10 mg/kg 2×/week), elraglusib+αPD-1, and elraglusib+αPD-L1 treatment groups.
The inventors evaluated the potential for elraglusib to increase the efficacy of immune checkpoint blockade and utilized a syngeneic murine colon carcinoma BALB/c murine model using a MSS cell line CT-26 (FIG. 4A). Mice were randomly assigned to one of seven groups: isotype (N=12), elraglusib (N=12), elraglusib+isotype (N=12), anti-PD-1 (N=12), anti-PD-L1 (N=12), elraglusib+anti-PD-1 (N=12), and elraglusib+ anti-PD-L1 (N=12).

[2] = vs controls without drug treatment

Structure (SMILES): Cn1cc(C2=C(c3coc4ccc(F)cc34)C(=O)NC2=O)c2cc3c(cc21)OCO3 [elraglusib]
- cPARP (93T449 liposarcoma): increase
- PD-L1 expression (93T449 liposarcoma; cell line not given): increase
- cPARP (Saos-2 osteosarcoma): increase
- PD-L1 expression (Saos-2 osteosarcoma; cell line not given): increase
- cell-killing after pre-treatment of the target tumor cells ([1]; pre-treatment of tumor cells, but not effector immune cells): bolstered cell-killing
- T cell (TALL-104) killing of colorectal cancer cells [1, 2]: significant increase
- natural killer (NK-92) cell killing of colorectal cancer cells [1, 2]: significant increase
- Bcl-2 expression (TALL-104): did not notice significant changes
- NF-κB expression (TALL-104): did not notice significant changes
- survival compared to the control (MSS cell line CT-26; N=12 per group): statistically significant improved survival
- hazard ratio for death (HR) (MSS cell line CT-26; compared to isotype control group): 0.12
- median overall survival (MSS cell line CT-26; elraglusib 70 mg/kg 2×/week, αPD-1/αPD-L1 10 mg/kg 2×/week, isotype control group 16 d): 19 days

From patent US20240041830A1, “CIRCULATING BIOMARKERS OF RESPONSE TO PD-1/PD-L1 BLOCKADE AND GSK-3 INHIBITION” (Brown University, priority 2022, published 2024)
